Where “and” joins values, the source holds several entries; their conditions need not be identical. Equal entries are not always repeated.
Tests used:
[1] = Study 1: treatment-related toxicity of XCEL (CTC version 2.0); type: in vivo, human
From the text: The radiation was delivered to the target area using 18 MV photons with 3-D conformal planning technique. The dose of radiation was either 35-40 Gy (n=18) or >45 Gy (n=15) with dose radiation missing in one patient. […] Celecoxib was continued with capecitabine to prevent HFS and to improve survival.
All patients were subjected to routine clinical examinations, laboratory analyses, and computed tomography. Patients were seen weekly during radiotherapy if treated on site or every 6-9 weeks with physical examinations, laboratory tests, and computed tomography. Treatment-related toxicity was graded using the National Institutes of Health's Common Toxicities Criteria (CTC) version 2.0. Tumor responses were evaluated using RECIST criteria. […] Overall response rate was defined as the sum of the complete and partial response rates and the tumor control rate was defined as the sum of overall response rates with stable disease rates. The date of death was ascertained through the cancer registry or through a search of patients' social security numbers in the Social Security Death Index (ssdi.genealogy.rootsweb.com).

[2] = system: metastatic colorectal cancer; assay: Study 2: complete responders to XCEL; CR duration, PFS, OS, relapse; type: in vivo, human
From the text: This retrospective study was approved by the institutional review board of The University of Texas M. D. Anderson Cancer Center. […] All patients were subjected to routine clinical examinations, laboratory analyses, and computed tomography before receiving XCEL described previously. All patient data were to be independently audited and radiographic images depicting CR were reviewed and agreed upon by two independent radiologists. All 19 patients had pathological confirmation of metastatic cancer ( ). Treatment-related toxicity was graded using the National Institutes of Health's Common Terminology Criteria for Adverse Events, version 3.0. Tumor responses were evaluated using RECIST criteria with complete response defined as complete radiographic disappearance of measurable or evaluable disease and normalization of tumor marker. The death date was ascertained by searching (ssdi.genealogy.rootsweb.com) using social security numbers. The cutoff point for collection of survival was October 2005. Continuous variables were summarized using the mean (±standard deviation) or the median (range). Categorical variables were summarized in frequency tables. Comparisons of important subgroups for these variables were made using the chi-square test or Fisher's exact test, as appropriate. Time to complete response was defined as time to start XCEL therapy to first documented radiographic complete response. Duration of complete response was defined as time to first CR to first recurrence or death. […] Patients were censored at the date of last follow-up if they had not progressed or died. Progression-free and overall survival distributions were summarized using the method of Kaplan and Meier. All response rates, progression-free survival and overall survival were calculated based on the 95% confidence interval (CI). Event chart was created using symbolized events versus time descriptively.

[3] = Study 2: treatment-related toxicity of XCEL (CTCAE version 3.0); type: in vivo, human
Procedure: This retrospective study was approved by the institutional review board of The University of Texas M. D. Anderson Cancer Center. All sixty-six patients received concurrent capecitabine (Xeloda, Roche Nutley, N.J.) at mean daily dose 1000 mg/m^2/d bid for 14 days every 21 days or Monday-through Friday with radiation with daily celecoxib (CELEBREX®, Pfizer, N.Y.) at 200 mg PO b.i.d. from October 2000 to December 2003.
All patients were subjected to routine clinical examinations, laboratory analyses, and computed tomography before receiving XCEL described previously. All patient data were to be independently audited and radiographic images depicting CR were reviewed and agreed upon by two independent radiologists. All 19 patients had pathological confirmation of metastatic cancer ( ). Treatment-related toxicity was graded using the National Institutes of Health's Common Terminology Criteria for Adverse Events, version 3.0. Tumor responses were evaluated using RECIST criteria with complete response defined as complete radiographic disappearance of measurable or evaluable disease and normalization of tumor marker. The death date was ascertained by searching (ssdi.genealogy.rootsweb.com) using social security numbers. The cutoff point for collection of survival was October 2005.

[4] = Study 3: treatment-related toxicity of XCEL (CTCAE version 3.0); conditions: in vivo
From the text: The institutional review board approved this study. […] All patients had clinical examinations, laboratory and CT scan every 2-3 months.
The principal investigator and two board-certified radiologists reviewed all the CT scan images. CR was defined according to the RECIST criteria as complete disappearance of measurable or none-measurable disease. Effective CR (eCR) was coined to describe normalization of an anatomical structure (e.g. nodes) that cannot regress completely. Confirmed CR included those patients who had CR by meeting the RECIST criteria or had achieved eCR or pathological CR. Near CR (nCR) were defined as almost complete disappearance (95-99%) of measurable disease on CT scan. Relapse free survival (RFS) was defined as the time from first radiologic CR to first recurrence, progression, or death. […] OS was defined as the time from first radiologic CR to death from any cause. Treatment related toxicity was graded in accordance with the National Cancer Institute Common Toxicity Criteria for Adverse Events, version 3.0.

[5] = earlier study, cited from earlier work

Cc1ccc(-c2cc(C(F)(F)F)nn2-c2ccc(S(N)(=O)=O)cc2)cc1 [XCEL]
Mild serum creatinine elevations ([1]; 3 patients after 14 to 32 months of XCEL, reversible upon discontinuation of celecoxib): 1.6 to 2.0 mg/dL
grade ⅔ HFS ([1]; expanded study with longer follow up): 17%
gastrointestinal bleeding, other cardiovascular events, deaths ([1]; in vivo): No gastrointestinal bleeding, other cardiovascular events, or deaths were noted
median time to HFS peak ([1]; n=12): 6.0 months and 6 months
median time to HFS onset ([1]; n=17): 3.8 months
Incidence of grade 1 HFS ([1]; n=65): 14%
Incidence of grade 2 HFS ([1]; n=65): 15%
Incidence of grade 3 HFS ([1]; n=65): 2%
grade ¾ lymphopenia ([1]; n=65): 24%
lymphopenia of all grades ([1]; n=65): 56%
relapse ([2]; all (eight relapses)): 41%
carcinoma embryonic antigen level ([2]; all nine patients with elevated CEA): normalization of CEA
Five-year OS ([2]; all patients): 64%
Five-year PFS from XCEL ([2]; all patients): 57%
median OS ([2]; all patients): 54 months
CR rate ([2]; first-line responders): 90%
first-line responders who achieved CR ([2]; in vivo): Eight of nine
median time to CR ([2]; in vivo): 6.5 months
median time to relapse from CR date ([2]; in vivo): 14 months
Five-year PFS from XCEL ([2]; none-surgical group / unresected CR patients): 71% and 70%
Five-year OS ([2]; none-surgical patients / unresected CR patients): 92%
confirmed pathological CR ([2]; one patient): 5%
median duration of CR ([2]; resected patients): 13 months
relapse ([2]; resected patients): 67%
CR rate ([2]; retroperitoneal nodal metastasis, with radiation): 50%
patients who discontinued XCEL and remained in CR ([2]; six of 14 patients, median follow-up of 36 months): 43%
median duration of CR ([2]; unresected patients): not reached
relapse ([2]; unresected patients): 29%
sustained CR rate ([2]; unresected patients): 70%
CR site ([2]; unresected patients, carcinomatosis): 21%
CR site ([2]; unresected patients, liver): 36%
CR site ([2]; unresected patients, nodal disease): 43%
mean peak MCV increase before and after XCEL ([3]; compliant patients): 10
Hematologic toxicities ([3]; in vivo): limited to grade 1 neutropenia and thrombocytopenia
grade ½ HFS ([3]; in vivo): 28%
grade ½ diarrhea ([3]; in vivo): 44%
grade ¾ lymphopenia ([3]; in vivo): 28%
Median increase in mean corpuscular volume (MCV) before and after XCEL ([3]; range 5-20): 10
Median mean corpuscular volume (MCV) increase from baseline after XCEL [4]: 11.5
cardiovascular toxicities [4]: No cardiovascular toxicities were encountered
incidence of grade ⅔ HFS ([5]; capecitabine 1000 mg/m2/d bid (Lin et al., 2002)): 12.5%
grade ¾ diarrhea ([5]; versus capecitabine alone (Lin et al., 2002)): reduced

Reference: patent US9260760B2, “Method for determining complete response to anticancer therapy” (Board of Regents, The University of Texas System, priority 2012, dated 2016)
